This is an account of results in US11793218B2, “Sweetener and flavor compositions, methods of making and methods of use thereof” (EPC Natural Products Co., Ltd., priority 2018, dated 2023).

The nature of data set [1]: Sensory analysis of odor/smell, color and taste of Maillard reaction samples at 22 C (Examples 55-62). It counts as in vivo, human.
Data set [2] in a line: Sensory evaluation of the samples prepared in Example 50 (Example 52). It counts as in vivo, human. Set-up: key to Intensity of Smell: “+” for slight; “++” for moderate; “+++” for very strong.
Method: The reaction partner (amino acid, carbohydrate source) were dissolved/suspended in the reaction solvent and transferred into a glass beaker filled with sand pre-heated for at least 30 minutes at the reaction temperature in a drying oven. After the planned reaction time, the vials were transferred into ice water. After cooling to room temperature, sensory analysis and analytical characterization was performed.
For evaluation of the taste profile, the samples were tested by a panel of four people. 1 trained taster tasted independently the samples first. The taster was asked to describe the taste profile and score 0-5 according to the increasing sugar likeness, bitterness, aftertaste and lingering taste profiles. The first taster was allowed to re-taste, and then make notes for the sensory attributes perceived. Afterwards, another 3 tasters tasted and the attributes were noted and discussed openly to find a suitable description. In case that more than 1 taster disagreed with the results, the tasting was repeated. In some sensory test results (above), the taste rating was expressed by “+”, which means the intensity of the factors is shown by three levels. “+” for slight, “++” for moderate and “+++” for very strong.
Data set [3] can be described thus: Sensory analysis of odor/smell, color and taste of Maillard reaction samples at 22 C (Examples 55-62). The data set is classed as in vivo, human. Here is the method:
The reaction partners were dissolved in water and then warmed glycerin (60° C.) was added. […]
[…] After 20 minutes in the ice bath the sealed vials were put in a water bath set to 22° C.
The odor/smell was assessed independently by 3 persons; the final description was agreed after discussion. […] The taste was assessed independently by 3 persons either in the original samples or after appropriate dilution to achieve relevant concentrations of sugars and steviol-glycosides (i.e. 5-9% SE); the final description was agreed after discussion.
This is another data set of the same source.

A short description of data set [4]: Sensory evaluation of GSGs and SGs, Thaumatin, NHDC and combinations in water (Example 255). It counts as in vivo, human. Here is the method: 4.5 ppm Thaumatin (equivalent to 10 ppm EPCalin) was dissolved in water. Increasing amounts of NHDC (1-5 ppm) were added to the solution and the sensory properties were evaluated.
50 ppm (GSGs and SGs) were dissolved in water. Increasing amounts of NHDC (1-5 ppm) were added to the solution and the sensory properties were evaluated.
50 ppm (GSGs and SGs) and 4.5 ppm Thaumatin (equivalent to 10 ppm EPCalin) were dissolved in water. Increasing amounts of NHDC (1-5 ppm) were added to the solution and the sensory properties were evaluated.
Sweetness intensity was rated on 5-point scale
Sweetness intensity was rated on a 5-point scale

For data set [5] the following is noted: cited from earlier work.
A short description of data set [6]: HPLC/DAD/MS detection of MRI (Amadori) products and degradation kinetics of reactants at various pH-conditions. The conditions noted are these: reaction of Phe and Xyl.
Data set [7] can be described thus: Assay to test reducing power (active iron-III reduction), Example 64. The data set is classed as physicochemical. Conditions: 100° C., up to 5.0 hours, diluted 1:10; FIG. 49.
Data set [8] in a line: DPPH radical-scavenging activity, Example 65. The data set is classed as physicochemical. Conditions: 100° C., up to 5.0 hours, diluted 1:10; FIG. 50. Here is the method: 1 mg 1,1-Diphenyl-2-picrylhydrazyl radical (DPPH)/ml ethanol, dilution to assay concentration were prepared in ethanol (40 μg/mL); Calibration samples were prepared with Ascorbic acid in a concentration of 0-10 μg/mL; as a negative control sample, water was used.
Samples in aqueous solution were used as such or diluted with water.
A 0.1 ml sample (or calibration standard) was mixed with 3.9 ml solution of DPPH (100 μMolar) and reacted while protected from light at room temperature for 30 min. Absorbance was determined at 517 nm against ethanol.
10 mM of amino acid and/or 10 mM sugar were dissolved in 10 ml 0.1 mM KH2PO4-buffer, pH=7.8.
The samples were kept at 100° C. in sealed glass vials (Pyrex 15 ml with screw caps) for 0 (before reaction), 2.5 or 5.0 hours. Thereafter the samples were transferred to an ice water bath and cooled down to room temperature. These samples were diluted 1:10 and used for the test assay for anti-oxidant potential.
(The DPPH test is a chemical assay of radical scavenging.)

[9] abbreviates: Table 57.2, before reaction, 10 ml KH2PO4, pH 7.8.
The mark [10] stands for this setting: Table 52.2, 1 ml water + 9 ml Glycerin, 0.67 h, 100° C.
Setting [11] is: Table 56.1, negative controls (no carbohydrate source), 10 ml glycerin/water=9:1, 100° C., 40 minutes.
Where [12] appears, read: Table 52.5, 1 ml water + 9 ml Glycerin, 2.0 h, 120° C.
[13] abbreviates: Table 52.6, Glycerin 10 ml, 100° C., 40 min.
The mark [14] stands for this setting: Table 52.7, Glycerin 10 ml, 1 h, 120° C.
Setting [15] is: Table 57.3, after reaction, 10 ml KH2PO4, pH 7.8, 2.5 h, 120° C.
Where [16] appears, read: Table 52.1, samples of Example 50 after reaction.

For `OC[C@H]1OC(O)[C@H](O)[C@@H](O)[C@@H]1O` (stereo partly drawn) [9 mg Glucose], in data set [1] (setting [9]), the Smell result is reported as “neutral” and the Taste result was “Sweet”.
With `C[C@H](N)C(=O)O` [0.1 mMol Ala], in data set [2] (setting [10]), the Smell entry was “Agar” and the Taste result is recorded as “sweet”.
In the case of `O=C(O)[C@@H]1CCCN1` [11.5 mg Pro], the Taste entry in data set [3] (setting [11]) is “Slightly sweet”.
Consider `COc1ccc(CCC(=O)c2c(O)cc(O[C@@H]3O[C@H](CO)[C@@H](O)[C@H](O)[C@H]3O[C@@H]3O[C@@H](C)[C@H](O)[C@@H](O)[C@H]3O)cc2O)cc1O` [NHDC, Neohesperidin dihydrochalcone, reference compound], for which, in data set [4] (in water, 4.5 ppm Thaumatin and/or 50 ppm GSGs and SGs with NHDC), the “sensory properties (sweetness, onset, mouth-feel, lingering)” value is “long lasting lingering”.
For the molecule `N[C@@H](CO)C(=O)O` [10.5 mg Ser], in data set [3] (setting [11]), the Smell entry is reported as “Lotus flower” and the Taste entry is reported as “Slightly sweet”.
Turning to `N[C@@H](Cc1ccccc1)C(=O)O` [0.1 mMol Phe], in data set [2] (setting [12]), the “Intensity of Smell” value was “+” and the Smell entry was “Caramel, burnt”.
On to `C=C1C[C@@]23CC[C@H]4[C@@](C)(CCC[C@@]4(C)C(=O)O[C@@H]4O[C@H](CO)[C@@H](O)[C@H](O)[C@H]4O)[C@@H]2CC[C@]1(O[C@@H]1O[C@H](CO)[C@@H](O)[C@H](O[C@@H]2O[C@H](CO)[C@@H](O)[C@H](O)[C@H]2O)[C@H]1O[C@@H]1O[C@H](CO)[C@@H](O)[C@H](O)[C@H]1O)C3` [0.05 mMol Reb-A], for which, in data set [2] (setting [10]), the Smell entry is “neutral/unpleasant” and the Taste entry is reported as “sweet”.
Take `CSCC[C@H](N)C(=O)O` [14.9 mg Met]: in data set [3] (setting [11]), the Smell result is given as “Sulfuric” and the Taste result is “Slightly sweet”.
`CC1(C)[C@@H](O[C@H]2O[C@H](C(=O)O)[C@@H](O)[C@H](O)[C@H]2O[C@@H]2O[C@H](C(=O)O)[C@@H](O)[C@H](O)[C@H]2O)CC[C@]2(C)[C@H]3C(=O)C=C4[C@@H]5C[C@@](C)(C(=O)O)CC[C@]5(C)CC[C@@]4(C)[C@]3(C)CC[C@@H]12` [Glycyrrhizin, reference compound]: in data set [5] (sweetness depends on the tested concentration compared with sucrose), the “times sweeter than sucrose (sugar)” value was 30 to 50 times.
With `OC[C@H]1OC(O)[C@H](O)[C@@H](O)[C@@H]1O` (stereo partly drawn) [10 mMol Glu], the Smell entry in data set [2] (setting [13]) and in data set [2] (setting [14]) was “Slightly Caramel” each time.
For the molecule `NC(=O)CC[C@H](N)C(=O)O` [14.62 mg Gln], the Taste result in data set [3] (setting [11]) was “Slightly sweet”.
For `COc1ccc(CCC(=O)c2c(O)cc(O[C@@H]3O[C@H](CO)[C@@H](O)[C@H](O)[C@H]3O[C@@H]3O[C@@H](C)[C@H](O)[C@@H](O)[C@H]3O)cc2O)cc1O` [10 ppm NHDC], in data set [4] (combinations of EPCalin and NHDC in water), the Sensory evaluation entry is listed as “Sweet, steep onset of sweetness, no lingering”.
Take `N[C@@H](CS)C(=O)O` [12.1 mg Cys]: in data set [3] (setting [11]), the Smell result is “Unpleasant (sulfur)” and the Taste result is “Slightly sweet”.
Regarding `O=C1O[C@@H]2[C@@H](O)[C@H](O)O[C@@H]2C1O` (stereo partly drawn) [Glucuronolactone], in data set [1] (setting [15]), the Smell entry is “Burnt sugar” and the Taste entry was “Bitter”.
Consider `O=C[C@H](O)[C@@H](O)[C@H](O)CO` [Xyl], for which the “% degradation” value in data set [6] (pH = 5.5) amounted to 4.59%; in data set [6] (pH = 7.0), 6.3%; in data set [6] (pH = 8.5), 9.47%.
For the molecule `C=C1C[C@@]23CC[C@H]4[C@@](C)(CCC[C@@]4(C)C(=O)O[C@@H]4O[C@H](CO)[C@@H](O)[C@H](O)[C@H]4O)[C@@H]2CC[C@]1(O[C@@H]1O[C@H](CO)[C@@H](O)[C@H](O[C@@H]2O[C@H](CO)[C@@H](O)[C@H](O)[C@H]2O)[C@H]1O[C@@H]1O[C@H](CO)[C@@H](O)[C@H](O)[C@H]1O)C3` [Reb-A, Rebaudioside A], in data set [7], the “active iron-III reduction (anti-oxidant properties)” value is on record as “substantial anti-oxidant properties”. Further, the “radical scavenging properties (anti-oxidant properties)” value in data set [8] is listed as “substantial anti-oxidant properties”.
On to `NCCCC[C@H](N)C(=O)O` [14.7 mg Lys], for which, in data set [3] (setting [11]), the Smell result is “Popcorn” and the Taste entry was “Slightly sweet”.
As for `CC[C@H](C)[C@H](N)C(=O)O` [13.11 mg Ile], in data set [3] (setting [11]), the Smell result was “Coffee” and the Taste entry is given as “Slightly sweet”.
For `N[C@@H](Cc1ccc(O)cc1)C(=O)O` [18.1 mg Tyr], in that order: “neutral” and “Slightly sweet”.
`N[C@@H](Cc1c[nH]c2ccccc12)C(=O)O` [20.42 mg Try]: in data set [3] (setting [11]), the Smell entry is listed as “Unpleasant (fecal)” and the Taste entry is on record as “Slightly sweet”.
Take `N[C@@H](Cc1ccccc1)C(=O)O` [Phe 60 mMol]: in data set [2] (setting [16]), the Smell result is “flowery/bloomy-caramel” and the Taste result is reported as “Sweet”.
For `N[C@@H](CCC(=O)O)C(=O)O` [167 mMol Glu], in that order: “caramel” and “Sweet”.
`N[C@@H](Cc1ccccc1)C(=O)O` [16.5 mg Phe]: the Smell result was “Caramel, burnt” in data set [3] (Example 58, after reaction); “Neutral” in data set [3] (Example 58, before reaction); “Bloomy, caramel” in data set [3] (setting [11]); “neutral” in data set [1] (setting [9]). Besides, the Taste entry is recorded as “Sweet” in data set [3] (Example 58, after reaction, after dilution 1:20); “Slightly sweet” in data set [3] (setting [11]); “No taste” in data set [1] (setting [9]).
`N[C@H](Cc1ccccc1)C(=O)O` [Phe]: in data set [1] (setting [15]), the Taste entry is given as “sweet”.
As for `N[C@@H](Cc1ccccc1)C(=O)O` [3.3 mMol Phe], the Smell result in data set [2] (Table 52.6, Glycerin 10 ml, 100° C., 5 min) is “Slightly bloomy”; in data set [2] (Table 52.6, Glycerin 10 ml, 100° C., 10 min), “flowery/bloomy”; in data set [2] (Table 52.6, Glycerin 10 ml, 100° C., 20 min) it was “flowery/bloomy”; in data set [2] (setting [13]), “flowery/bloomy”; in data set [2] (setting [14]) it was “flowery/bloomy”.
Take `C[C@@H](O)[C@H](N)C(=O)O` [11.91 mg Thr]: in data set [3] (setting [11]), the Smell entry is reported as “Vanilla, butter” and the Taste entry is listed as “Slightly sweet”.
As for `O=C[C@H](O)[C@H]1OC(=O)[C@@H](O)[C@H]1O` [0.1 mMol GlucLac], the Smell result in data set [2] (setting [12]) was “Burnt sugar”.
Take `O=C[C@H](O)[C@@H](O)[C@H](O)[C@H](O)C(=O)O` [Glucuronic Acid]: in data set [1] (setting [15]), the Smell result was “burnt bread” and the Taste entry is “Bitter”.
For `C[C@H](N)C(=O)O` [8.91 mg Ala], the Taste result in data set [3] (setting [11]) is on record as “Slightly sweet”.

B1: Miraculin: A protein that does not taste sweet by itself but modifies taste receptors to make sour things taste sweet temporarily (protein, UniProt P13087 30-220, looked up)
Miraculin: DSAPNPVLDIDGEKLRTGTNYYIVPVLRDHGGGLTVSATTPNGTFVCPPRVVQTRKEVDHDRPLAFFPENPKEDVVRVSTDLNINFSAFMPCRWTSSTVWRLDKYDESTGQYFVTIGGVKGNPGPETISSWFKIEEFCGSGFYKLVFCPTVCGSCKVKCGDVGIYIDQKGRRRLALSDKPFAFEFNKTVYF
B1: in data set [5] (in vivo), the “Notes (sweet taste)” value was “A protein that does not taste sweet by itself”.
